From patent US10889569B2, “Condensed ring group azacyclobutyl triazole derivative, preparation method therefor and use thereof in medicine” (Jiangsu Hengrui Medicine Co., Ltd., priority 2016, dated 2021)

Columns and labels:
[1] = molecular target: human OTR (Homo sapiens, UniProt P30559); assay: Inhibition activity on human OTR (Fluo-4 calcium assay, HEK293/human OTR stably transfected cells); type: cell-based; conditions: oxytocin 3 nM
Method in brief: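 HEK293 cells stably expressing human OTR, loaded with Fluo-4 for 30 min at 37 °C, were preincubated 10 min at room temperature with compound (stocks 10^1–10^6 nM). Oxytocin (3 nM as added) then triggered calcium signal, read immediately at 494/516; IC50 fitted from fluorescence versus concentration.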

[2] = Pharmacokinetics assay in rats after intragastrical administration; type: in vivo, SD rats; conditions: Sprague-Dawley, rat, plasma, po, 30 mg/kg, intragastric, male rats; for Vd/F: read-out: Apparent distribution volume Vz/F; for AUC: read-out: Area under curve AUC; for CL/F: read-out: Clearance CLz/F; for half-life: read-out: Half-life T1/2 (converted); for Cmax: read-out: Plasma concentration Cmax; for MRT: read-out: Residence time MRT
Method in brief: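 Fasted male SD rats (3 per compound) received 30.0 mg/kg by gavage […] in 2.5% DMSO/97.5% of 10% solutol HS-15. Orbital blood was taken pre-dose and 0.5-24 h; plasma was acetonitrile-precipitated with camptothecin internal standard and quantified by LC/MS/MS.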

IC50 [1] [nM] | Vd/F [2] [L/kg] | AUC [2] [ng·h/mL] | CL/F [2] [mL/min/kg] | half-life [2] [h] | Cmax [2] [ng/mL] | MRT [2] [h] | Compound
2 | 5.29 ± 3.44 | 8580 ± 3560 | 63.8 ± 26.5 | 0.91 ± 0.25 | 3930 ± 3030 | 2.46 ± 1.44 | COCc1nnc(N2CC(c3cccc4cc(F)ccc34)C2)n1-c1ccc(OC)nc1 [Example 2, 5-(3-(3-(6-Fluoronaphthalen-1-yl)azetidin-1-yl)-5-(methoxymethyl)-4H-1,2,4-triazol-4-yl)-2-methoxypyridine]
64 | 13.7 ± 3.83 | 11200 ± 4390 | 48 ± 19 | 3.35 ± 0.399 | 2020 ± 580 | 5.08 ± 0.552 | COCc1nnc(N2CC(n3cc(C)c4cc(F)ccc43)C2)n1-c1ccc(OC)nc1 [Example 17, 5-Fluoro-1-(1-(5-(methoxymethyl)-4-(6-methoxypyridin-3-yl)-4H-1,2,4-triazol-3-yl)azetidin-3-yl)-3-methyl-1H-indole]
